16 compounds from PubChem BioAssay AID256 (DTP/NCI, 2004) can be followed below.

For the assay, the system named is CD2F1 mice, L1210 leukemia ip, survival T/C. Put plainly: NCI In Vivo Anticancer Drug Screen. Data for tumor model L1210 Leukemia (intraperitoneal) in CD2F1 (CDF1) mice. The following applies: endpoint: mean survival time, higher = longer survival. The method, boiled down:
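Transplantable tumor in mice; compound-treated vs vehicle-treated groups. Read-out = treated/control ratio of the measured endpoint.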

Setting [1] is: dose: 100.0 mg/kg/injection, schedule: Q01DX009 (ip), vehicle: saline with Tween-80.
[2] abbreviates: dose: 100.0 mg/kg/injection, schedule: Q04DX003 (ip), vehicle: saline with Tween-80.
[3] abbreviates: dose: 200.0 mg/kg/injection, schedule: Q01DX009 (ip), vehicle: saline with Tween-80.
The mark [4] stands for this setting: dose: 200.0 mg/kg/injection, schedule: Q04DX003 (ip), vehicle: saline with Tween-80.
The mark [5] stands for this setting: dose: 400.0 mg/kg/injection, schedule: Q01DX009 (ip), vehicle: saline with Tween-80.
The mark [6] stands for this setting: dose: 400.0 mg/kg/injection, schedule: Q04DX003 (ip), vehicle: saline with Tween-80.
Setting [7] is: dose: 50.0 mg/kg/injection, schedule: Q01DX009 (ip), vehicle: saline with Tween-80.

Each structure is given as a SMILES string. Several values for one entry are separate records, joined by “and”; a condition that tells them apart may be missing. Equal values may be shown once. Inconclusive results and toxic doses are left out.

Consider `O=c1[nH]cc(N=Cc2ccccc2Cl)c(=O)[nH]1.[Cl][Pt][Cl]`, for which the T/C runs as follows: (dose: 3.13 mg/kg/injection, schedule: Q04DX003 (ip), vehicle: distilled water + Tween-80) 94 % of control; (dose: 6.25 mg/kg/injection, schedule: Q04DX003 (ip), vehicle: distilled water + Tween-80) 97 % of control; (dose: 12.5 mg/kg/injection, schedule: Q04DX003 (ip), vehicle: distilled water + Tween-80) 88 % of control; (dose: 25.0 mg/kg/injection, schedule: Q04DX003 (ip), vehicle: distilled water + Tween-80) 96 % of control; (dose: 50.0 mg/kg/injection, schedule: Q04DX003 (ip), vehicle: distilled water + Tween-80) 96 % of control; (dose: 100.0 mg/kg/injection, schedule: Q04DX003 (ip), vehicle: distilled water + Tween-80) 103 % of control. For the setting “dose: 200.0 mg/kg/injection, schedule: Q04DX003 (ip), vehicle: distilled water + Tween-80”, the T/C was 94 % of control.
Turning to `C[CH2][Pb]([CH2]C)([CH2]C)[O]C(=O)C=C1CCCC1`, the T/C is, setting by setting: (dose: 0.63 mg/kg/injection, schedule: Q01DX009 (ip), vehicle: saline) 96 % of control; (dose: 1.25 mg/kg/injection, schedule: Q01DX009 (ip), vehicle: saline) 102 % of control; (dose: 2.5 mg/kg/injection, schedule: Q01DX009 (ip), vehicle: saline) 95 % of control; (dose: 5.0 mg/kg/injection, schedule: Q04DX003 (ip), vehicle: saline with Tween-80) 92 % of control; (dose: 10.0 mg/kg/injection, schedule: Q04DX003 (ip), vehicle: saline with Tween-80) 92 % of control.
For the compound `Cc1ccc(NC(=O)c2ccccc2C(=O)O)cc1C`, the T/C runs as follows: under setting [1], 98 % of control; under setting [2], 100 % of control; under setting [3], 95 % of control; under setting [4], 101 % of control; under setting [5], 94 % of control; under setting [6], 103 % of control.
For `O=[N+]([O-])CC(OCCO)C(Cl)(Cl)Cl` (centres undefined), the T/C is, setting by setting: (dose: 6.25 mg/kg/injection, schedule: Q01DX009 (ip), vehicle: acetone) 97 % of control; (dose: 12.5 mg/kg/injection, schedule: Q01DX009 (ip), vehicle: acetone) 102 % of control; (dose: 12.5 mg/kg/injection, schedule: Q04DX003 (ip), vehicle: acetone) 90 % of control; (dose: 25.0 mg/kg/injection, schedule: Q01DX009 (ip), vehicle: acetone) 97 % of control; (dose: 25.0 mg/kg/injection, schedule: Q04DX003 (ip), vehicle: acetone) 87 % of control.
Take `COCC(=O)C(C(C)=O)C(c1ccc(OC)cc1)C(C(C)=O)C(=O)COC` (centres undefined): the T/C by setting is: (dose: 100.0 mg/kg/injection, schedule: Q01DX001 (ip), vehicle: saline with Tween-80) 101 % of control; (dose: 200.0 mg/kg/injection, schedule: Q01DX001 (ip), vehicle: saline with Tween-80) 98 % of control; (dose: 400.0 mg/kg/injection, schedule: Q01DX001 (ip), vehicle: saline with Tween-80) 95 % of control.
As for `COC(=O)C(CSCc1ccccc1)NC(=O)CCNC(=O)OCc1ccccc1` (centres undefined), the T/C was 102 % of control (dose: 25.0 mg/kg/injection, schedule: Q01DX009 (ip), vehicle: Klucel (hydroxypropylcellulose) (HPC)); 102 % of control (dose: 50.0 mg/kg/injection, schedule: Q01DX009 (ip), vehicle: Klucel (hydroxypropylcellulose) (HPC)); 96 % of control (dose: 100.0 mg/kg/injection, schedule: Q01DX009 (ip), vehicle: Klucel (hydroxypropylcellulose) (HPC)); 102 % of control (dose: 200.0 mg/kg/injection, schedule: Q01DX009 (ip), vehicle: Klucel (hydroxypropylcellulose) (HPC)); 86 % of control (dose: 400.0 mg/kg/injection, schedule: Q01DX009 (ip), vehicle: Klucel (hydroxypropylcellulose) (HPC)).
With `CC(=O)c1cccc(N=NN(C)C)c1`, the T/C by setting is: (dose: 46.0 mg/kg/injection, schedule: Q01DX009 (ip), vehicle: Klucel (hydroxypropylcellulose) (HPC)) 124 % of control; (dose: 69.0 mg/kg/injection, schedule: Q01DX009 (ip), vehicle: Klucel (hydroxypropylcellulose) (HPC)) 154 % of control; (dose: 158.0 mg/kg/injection, schedule: Q01DX009 (ip), vehicle: Klucel (hydroxypropylcellulose) (HPC)) 87 % of control and 107 % of control.
With `O=c1oc2c(ccc3ccccc32)c(O)c1-c1ccccc1`, the T/C runs as follows: under setting [7], 103 % of control; under setting [1], 103 % of control.
For `COc1ccc(OC)c(NC(=O)NNC(=O)c2ccc(Cl)cc2Cl)c1`, the T/C by setting is: under setting [1], 91 % of control; under setting [3], 90 % of control; under setting [5], 91 % of control.
`CCOC(=O)N(C)c1ccc(Cl)cc1C(N)=O`: the T/C reads like this: (dose: 100.0 mg/kg/injection, schedule: Q04DX002 (ip), vehicle: saline with Tween-80) 101 % of control; (dose: 200.0 mg/kg/injection, schedule: Q04DX002 (ip), vehicle: saline with Tween-80) 97 % of control; (dose: 400.0 mg/kg/injection, schedule: Q04DX002 (ip), vehicle: saline with Tween-80) 118 % of control.
Turning to `CC1=C/C(=N\N=C2/C=C(C)CC(C)(C)C2)CC(C)(C)C1`, the T/C by setting is: (dose: 100.0 mg/kg/injection, schedule: Q04DX003 (ip), vehicle: Klucel (hydroxypropylcellulose) (HPC)) 93 % of control; (dose: 200.0 mg/kg/injection, schedule: Q04DX003 (ip), vehicle: Klucel (hydroxypropylcellulose) (HPC)) 91 % of control; (dose: 400.0 mg/kg/injection, schedule: Q04DX003 (ip), vehicle: Klucel (hydroxypropylcellulose) (HPC)) 89 % of control.
On to `O=C1C=CC(O)CCC1` (centres undefined) (tested in a mixture with another compound), for which the T/C was 101 % of control under setting [2], 101 % of control under setting [4] and 97 % of control under setting [6].
Turning to `O=[N+]([O-])c1ccc(N=Nc2ccc3c(c2)-c2ccccc2C3=P(c2ccccc2)(c2ccccc2)c2ccccc2)cc1`, the T/C by setting is: under setting [7], 94 % of control; under setting [1], 91 % of control; under setting [2], 91 % of control; under setting [3], 94 % of control; under setting [4], 91 % of control.
For the compound `O=C(O)/C=C/C(=O)NCCCCCCNC(=O)/C=C/C(=O)O`, the T/C runs as follows: (dose: 100.0 mg/kg/injection, schedule: Q01DX009 (ip), vehicle: saline) 91 % of control; (dose: 200.0 mg/kg/injection, schedule: Q01DX009 (ip), vehicle: saline) 94 % of control; (dose: 400.0 mg/kg/injection, schedule: Q01DX009 (ip), vehicle: saline) 91 % of control.
`CN(C)N=Nc1ccccc1-c1nc(N)c2ccccc2n1`: the T/C is 103 % of control (dose: 6.25 mg/kg/injection, schedule: Q01DX005 (ip), vehicle: water); 88 % of control (dose: 12.5 mg/kg/injection, schedule: Q01DX005 (ip), vehicle: water); 109 % of control (dose: 25.0 mg/kg/injection, schedule: Q01DX005 (ip), vehicle: water); 117 % of control (dose: 50.0 mg/kg/injection, schedule: Q01DX005 (ip), vehicle: water); 98 % of control (dose: 100.0 mg/kg/injection, schedule: Q01DX005 (ip), vehicle: water).
Consider `O=C(O)C1(c2ccccc2)OCCO1`, for which the T/C is 103 % of control (dose: 100.0 mg/kg/injection, schedule: Q04DX003 (ip), vehicle: saline); 103 % of control (dose: 200.0 mg/kg/injection, schedule: Q04DX003 (ip), vehicle: saline); 97 % of control (dose: 400.0 mg/kg/injection, schedule: Q04DX003 (ip), vehicle: saline).
